Data: US12552744B2, “Method for producing monosulfoxide derivative” (KUMIAI CHEMICAL INDUSTRY CO., LTD., priority 2020, dated 2026)

Test: Solubility of the compound in solvents
Format: physicochemical
Conditions: at 5° C.

solubility in a mixed solution of 70 wt. % t-butanol/water: about 2 wt. %
Compound: [O-][S+](CC(F)(F)F)c1cc(OCCCCCSC(F)(F)F)c(F)cc1Cl (stereo not shown) [B-a, 5-trifluoromethylthiopentyl-[4-chloro-2-fluoro-5-(2,2,2-trifluoroethylsulfinyl)phenyl]ether]
